Reference: US20050233984A1, “Composition for preventing or treating degenerative brain diseases comprising a hydrolysate of ginsenosides” (Digital Biotech Co., Ltd., priority 2002, published 2005)

Columns and labels:
[1] = test system: neuroblastoma B103 cell line; test: MTT test: preventing the toxicity of beta-amyloid; type: cell-based; conditions: for Survival rate (%): B103 cells, beta-amyloid-only control = 100%
Method: In order to examine the activities of the compounds prepared in the Reference Example in preventing the toxicity of beta-amyloid, the MTT analysis (Gillardon, F. et al., Brain Research. No. 6: pp. 169-172 (1996)) was carried out as follows.
5×10^3 cells of neuroblastoma B103 cell line (donated by Dr. David Schubert of the Salk Institute, USA) were placed in each well of a 96-well plate with 100 μl of DMEM (Dulbecco's Minimal Eagle's Medium) containing 10% fetal bovine serum (FBS), and cultured at 37° C. under 8% CO2 for 1 day. […] The cells were cultured at 37° C. for 18 hours, treated with 15 μl of MTT solution [10 mg/ml solution of 3-(4,5-dimethyl-2-thiazolyl)-2,5-diphenyl-2H-tetrazolium bromide in phosphate buffered saline (PBS)], and allowed to react at 37° C. for 3 to 4 hours. 100 μl of lysis buffer (10% SDS, 50% dimethylformamide, pH 4.7) was added to the wells, and the cells were cultured overnight at room temperature and relative humidity of 90%. Optical density (OD) of each well was measured at […] and 630 nm, respectively, using a scanning multiwell spectrophotometer, and then the OD value at 630 nm was subtracted from that at 570 nm.
Setting the survival rate of the control group treated only with beta-amyloid as 100%, relative survival rates of the experimental groups treated with compound Y, ginsenosides Mc and Rc, PPD and PPT, respectively, were calculated, and the results are shown in Table 2 and FIG. 1. The obtained values were statistically significant.
When the same procedure as above was repeated except that the cells were treated simultaneously with the test compound and beta-amyloid, or treated with the test compound one hour after the beta-amyloid treatment, the results were almost the same as above.
Further, in order to assess the concentration-dependent activity of a test compound, the above procedure was repeated using PPT at concentrations ranging from […].

[2] = test system: neuroblastoma B103 cell line; test: MTT test: anti-oxidative effect, H2O2 in place of beta-amyloid; type: cell-based; conditions: B103 cells, H2O2-only control = 100%
Method: 5×10^3 cells of neuroblastoma B103 cell line (donated by Dr. David Schubert of the Salk Institute, USA) were placed in each well of a 96-well plate with 100 μl of DMEM (Dulbecco's Minimal Eagle's Medium) containing 10% fetal bovine serum (FBS), and cultured at 37° C. under 8% CO2 for 1 day. After changing the medium to serum-free DMEM, the cells were treated with various concentrations of test compounds and, 1 hour later, with 25 μM of beta-amyloid (25-35 peptide; US peptide, CA, USA). The cells were cultured at 37° C. for 18 hours, treated with 15 μl of MTT solution [10 mg/ml solution of 3-(4,5-dimethyl-2-thiazolyl)-2,5-diphenyl-2H-tetrazolium bromide in phosphate buffered saline (PBS)], and allowed to react at 37° C. for 3 to 4 hours. 100 μl of lysis buffer (10% SDS, 50% dimethylformamide, pH 4.7) was added to the wells, and the cells were cultured overnight at room temperature and relative humidity of 90%. Optical density (OD) of each well was measured at […] and 630 nm, respectively, using a scanning multiwell spectrophotometer, and then the OD value at 630 nm was subtracted from that at 570 nm.
In order to examine whether compounds originating from ginseng can block oxidative stress, the procedure of Example 1 was repeated except for using 1 μM of H2O2 in place of beta-amyloid, and the survival rates of the neural cells were determined.

synaptophysin = test: Synaptic density: synaptophysin in hippocampus and cortex by Western blotting; type: in vivo; conditions: 0.5 mg/kg intraperitoneally once a day for 4 days, C57BL/6 mice
Method: 1 mg/kg of ginsenoside Rc or Mc, or compound Y or K, or 0.5 mg/kg of PPD or PPT was intraperitoneally administered to C57BL/6 mice (9-week old, weight: about 25 g) once a day for 4 days. Then, the brain of the mouse was removed and the hippocampus and cortex were separated therefrom. The amounts of synaptophysin, a protein marker of synaptic vesicle, in the hippocampus and cortex were quantified with Western blotting and an image analysis with a densitometer (LAS100, Fujifilm, Japan) employing a synaptophysin-specific antibody (Cat #902 314, Boehringer Mannheim, Germany).

[3] = Degree of BBB penetration: pharmacokinetics in blood and brain by LC-mass; type: in vivo, Sprague-Dawley rat; conditions: SD rat; for detection of the peak in the brain tissue sample: 15 minutes after administration of 1 mg/kg of Rg1 or Rb1, FIGS. 10a and 10b
Method: A male Sprague-Dawley rat (weight 250-300 g) was lightly anesthetized with ether and catheterized with a polyethylene tube (PE-50) in the femoral artery and vein. After the rat recovered, a saline solution containing 1 mg/kg of Rg1 or Rb1 was administered into the femoral vein through the intravenous bolus administration. 300 μl blood samples were collected from the rat's femoral artery at 2, 5, 10, 15, 20, 30, 45 and 60 minutes after the administration. Each blood sample was centrifuged to obtain 100 μl of plasma. A plasma sample was prepared as in (2) of step 1 with the plasma. 20 μl of the sample was injected into the LC mass system as in Step 1, and ginsenosides Rg1 and Rb1 and their metabolites PPD and PPT were quantified. The plasma concentrations of ginsenosides and their metabolites were calculated in the forms of weight per plasma (ml) (in case of ginsenosides) or peak size (in case of metabolites).
Immediately after collecting the blood samples, the rats were decapitated and brain tissues were obtained therefrom. The tissues were rinsed with ice-cooled saline, placed in a 15 ml Falcon tube and then weighed precisely. Acetonitrile was added to the tube in an amount twice the weight of the tissue sample, and the sample was homogenized using a tissue homogenizer (Ultra-Turrax T25, JANKE&KUNKEL IKA-Labortechnik). The mixture was centrifuged at 3,000 rpm for 20 minutes. 300 μl of the resulting supernatant was dried in a speed-vac, and 300 μl of acetonitrile was added thereto. 20 μl of the resulting mixture was injected in the LC mass system as in Step 1 to quantify the concentrations of ginsenosides and their metabolites in the brain, and the measured concentrations were represented by weight per gram of the brain tissue or peak size.
Separation and detection conditions for ginsenosides Rg1 and Rb1 were as described in Step 1, and those for metabolites PPD and PPT were as follows:
The transfer rate of the substances into the brain (Kbrain) can be represented by the ratio of the mean concentration of the substance in the brain (Cmean,brain) to the mean plasma concentration (Cmean,plasma) as in Equation 1. [formula]
The mean concentration of a substance can be determined by dividing the area under the concentration-time curve corresponding to time 0 to t by t and, accordingly, the transfer rate of the substance into the brain (Kbrain) can be calculated by Equation 2 shown below. [formula]

[4] = test compound 1 μM + 25 μM beta-amyloid (25-35), 18 hours
[5] = test compound 1 μM alone, without beta-amyloid
[6] = test compound 1 μM alone, without H2O2

SMILES	Survival rate (%) [1, 4] [%]	Survival rate (%) [1, 5] [%]	Survival rate (%) ([2]; test compound 1 μM + 1 μM H2O2)	Survival rate (%) [2, 6] [%]	amount of synaptophysin in cortex (synaptophysin)	amount of synaptophysin in hippocampus (synaptophysin)	detection of the peak in the brain tissue sample [3]	concentration-dependent inhibitory activity against beta-amyloid toxicity (in words) ([1]; FIG. 2, PPT concentration series)	Survival rate (%) ([1]; test compound 10 μM + 25 μM beta-amyloid (25-35), 18 hours)	Survival rate (%) ([1]; test compound 10 μM alone, without beta-amyloid)	Survival rate (%) ([2]; test compound 10 μM + 1 μM H2O2)	Survival rate (%) ([2]; test compound 10 μM alone, without H2O2)	transfer rate into the brain (Kbrain) ([3]; calculated with Equations 1 and 2 (mean brain / mean plasma concentration)) [%]	concentration in the plasma versus the brain tissue (in words) ([3]; metabolite after 1 mg/kg intravenous ginsenoside, FIG. 12)
CC(C)=CCCC(C)(O)[C@H]1CC[C@]2(C)[C@@H]1[C@H](O)C[C@@H]1[C@@]3(C)CC[C@H](O)C(C)(C)[C@@H]3CC[C@]12C (stereo in doubt) [PPD, protopanaxadiol]	106.7 ± 6.9	137.7 ± 4.8	219.6 ± 3.0	494.3 ± 3.5	no change	significantly increased	well detected							
CC(C)=CCC[C@](C)(O)[C@H]1CC[C@]2(C)[C@@H]1[C@H](O)C[C@@H]1[C@@]3(C)CC[C@H](O)C(C)(C)[C@@H]3[C@@H](O)C[C@]12C [PPT, protopanaxatriol]	106.6 ± 1.2	157.4 ± 3.3	381.3 ± 0.9	516.1 ± 1.6	no change	significantly increased	well detected	began to show its inhibitory activity at the μM level	119.7 ± 8.5	140.3 ± 6.4	457.8 ± 2.5	516.5 ± 1.2	130±46.4	almost identical
